# Source: patent publication US9169237B1, “Antiprotozoal amidine compounds” (Medi Synergics, LLC, priority 2014, dated 2015)
# System: T. brucei brucei
# Assay: T. brucei brucei growth inhibition assay
# Type: cell-based, Trypanosoma brucei brucei clone 427-221a (bloodstream forms)
# Details: Trypanosoma brucei; bloodstream forms, T. brucei brucei clone 427-221a; 40 hours at 37° C.; 0.5% DMSO; ATP-bioluminescence; read-out: IC50 (μM) (95% Confidence Intervals)
# Experimental: The growth inhibition assay for T. brucei brucei was conducted as described previously by Z. B. Mackey et al (Kenny K. H. Ang, Joseline Ratnam, Jiri Gut, Jennifer Legac, Elizabeth Hansell, Zachary B. Mackey, Katarzyna M. Skrzypczynska, Anjan Debnath, Juan C. Engel, Philip J. Rosenthal, James H. McKerrow, Michelle R. Arkin, Adam R. Renslo (2011) “Mining a Cathepsin Inhibitor Library for New Antiparasitic Drug Leads”, PLoS Neglected Tropical Diseases, 5(5):e1023). Bloodstream forms of the monomorphic T. brucei brucei clone 427-221a were grown in complete HMI-9 medium containing 10% FBS, 10% Serum Plus medium (Sigma Inc., St. Louis, Mo., USA), 50 U/mL penicillin and […] streptomycin (Invitrogen) at 37° C. under a humidified atmosphere and 5% CO2. Inhibitor stocks were prepared in 100% DMSO and screened at […] for percent inhibition values or serially diluted from […] in 10% DMSO for […] determinations. […] of each dilution was added to […] of diluted parasites ([…]) in sterile Greiner 96-well flat white opaque culture plates such that the final DMSO concentration was 0.5%. The 0% inhibition control wells contained 0.5% DMSO while 100% inhibition control wells contained […] thimerosal (Sigma). After compound addition, plates were incubated for 40 hours at 37° C. At the end of the incubation period, […] of CellTiter-GIo™ reagent (Promega Inc., Madison, Wis., USA) was added to each well and plates were placed on an orbital shaker at room temperature for 2 min to induce lysis. After an additional 10 min of incubation without shaking to stabilize the signal, the ATP-bioluminescence of each well was determined using an Analyst HT plate reader (Molecular Devices, Sunnyvale, Calif., USA). Raw values were converted to log 10 and percentage inhibition calculated relative to the controls. IC50 curve fittings were performed with Prism 4 software as above. Pentamidine was used as a comparator in the assay.
row,IC50 [µM],SMILES
1,20,"CN(CCCC1(c2ccc(F)cc2)OCc2cc(C#N)ccc21)C1=NCCCC1 (stereo not drawn) [Example 3, 1-(4-fluorophenyl)-1-{3-[methyl(3,4,5,6-tetrahydropyridin-2-yl)amino]propyl}-1,3-dihydro-2-benzo-furan-5-carbonitrile]"
2,10,"CC(=N)N(C)CCCC1(c2ccc(F)cc2)OCc2cc(C#N)ccc21 (stereo not drawn) [Example 1, N-{3-[5-cyano-1-(4-fluorophenyl)-1,3-dihydro-2-benzofuran-1-yl]propyl}-N-methyl-ethanimidamide]"
3,1.1,"CN(CCCC1(c2ccc(F)cc2)OCc2cc(C#N)ccc21)C(=N)c1ccccc1 (stereo not drawn) [Example 2, N-{3-[5-cyano-1-(4-fluorophenyl)-1,3-dihydro-2-benzofuran-1-yl]propyl}-N-methyl-phenylmethanimidamide]"
